Test results published in patent publication US9839668B2, “Compositions and methods for the treatment of diseases related to the renin-angiotensin-system” (ATTOQUANT DIAGNOSTICS GMBH, priority 2013, dated 2017).

Experiments:
[1] = system: SHR rats; assay: Systolic blood pressure in male SHR rats, tail-cuff method; assay type: in vivo, rat; settings: day 7, mean +/-SEM
Experimental: Twenty male 16-week-old SHR rats were used for investigation of short-term effects of the new drug combination on systolic blood pressure. Prior to starting the treatment procedure, rats were conditioned to the experimental procedure by daily blood pressure measurements using the tail-cuff method for 1 week. […] Daily blood pressure measurements were performed 4 h following drug administration and continued throughout the whole treatment period. Blood-pressure data were evaluated by calculating the relative change in systolic blood pressure compared to the vehicle group at day 7 of drug administration. Statistical comparison between the groups was conducted by using Student's T-test.
Mean body weight and baseline systolic blood pressure of SHR rats were determined at the beginning of the treatment period resulting in a mean body weight of 283 g and mean systolic blood pressure of 196 mmHg. Following 7 days of daily oral administration of different compounds and compound combinations, systolic blood pressure was monitored by tail-cuff method and the relative changes compared to vehicle treated control rats (V) mean values are shown with corresponding standard errors of the mean (+/−SEM) (FIG. 1).

[2] = system: Ang 1-8 and Ang 1-7 levels in human whole blood; assay: Ang 1-8 and Ang 1-7 levels in human heparinized whole blood plus recombinant human renin, ex vivo, LC-MS/MS; assay type: biochemical; settings: human whole blood + 100 pg/ml renin, 60 min 37° C., ACE inhibitors 10 μM; for Ang 1-7 level: vehicle control 27 pg/ml; for Ang 1-8 level: vehicle control 686 pg/ml
Experimental: Blood was collected from a human healthy volunteer using a standard heparin blood collection tube. Recombinant human renin was added to whole blood at a concentration of 100 pg/ml in order to simulate RAS hyper-activation. Drugs and combinations were added to different plasma samples at indicated final concentrations and combinations (FIG. 2) using appropriate solvent controls for each compound or combination tested. Following an incubation period of 60 min at 37° C., samples were stabilized by addition of protease inhibitors and Ang 1-8 and Ang 1-7 levels were measured by mass spectrometry.
Ang 1-8 and Ang 1-7 levels were measured following 1 h of incubating the compounds with human heparinized whole blood (plus recombinant human renin) at 37° C.

[3] = system: Balb/c mice; assay: Plasma Ang 1-8 and Ang 1-7 levels in Balb/c mice after intra-peritoneal injection, LC-MS/MS; assay type: in vivo, mouse
Experimental: Mice were sacrificed 4 h following drug administration and blood was collected in the presence of protease inhibitors suitable for stabilization of angiotensin peptides in the collected sample. Following centrifugation of blood at 2500 g for 5 min at 4° C., Ang 1-8 and Ang 1-7 was quantified in the plasma samples by LC-MS/MS analysis.

[4] = system: SHR rat; settings: one SHR rat, i.v. 50 μmol/kg Lisinopril then 20 μmol/kg Amastatin, blood 10 min after each infusion
Experimental: A male SHR rat was anesthetized by isoflurane followed by preparation of the jugular vein and insertion of an infusion catheter. At the beginning of the experiment (t=0 min) 200 μl of phosphate buffered saline was infused into the jugular vein within a period of 15 seconds. 10 min following saline infusion, 500 μl heparin blood was collected from the tail vein and placed on ice. Another 10 min later (t=20 min) a dose of 50 μmol/kg Lisinopril was in fused in a volume of 200 μl phosphate buffered saline, followed by another tail vein heparin blood collection of 500 μl heparin blood 10 min after Lisinopril infusion. […] Following centrifugation of blood at 2500 g for 5 min at 4° C., Ang 1-8 and Ang 1-7 was quantified in the plasma samples by LC-MS/MS analysis.

[5] = target: T1, APA in the brain (Rattus norvegicus, UniProt P50123); settings: via inhibition of APA by active metabolite EC-33 in the brain; cited from earlier work
T1 construct: host or cells: brain, in vivo
T1 sequence (P50123 whole entry): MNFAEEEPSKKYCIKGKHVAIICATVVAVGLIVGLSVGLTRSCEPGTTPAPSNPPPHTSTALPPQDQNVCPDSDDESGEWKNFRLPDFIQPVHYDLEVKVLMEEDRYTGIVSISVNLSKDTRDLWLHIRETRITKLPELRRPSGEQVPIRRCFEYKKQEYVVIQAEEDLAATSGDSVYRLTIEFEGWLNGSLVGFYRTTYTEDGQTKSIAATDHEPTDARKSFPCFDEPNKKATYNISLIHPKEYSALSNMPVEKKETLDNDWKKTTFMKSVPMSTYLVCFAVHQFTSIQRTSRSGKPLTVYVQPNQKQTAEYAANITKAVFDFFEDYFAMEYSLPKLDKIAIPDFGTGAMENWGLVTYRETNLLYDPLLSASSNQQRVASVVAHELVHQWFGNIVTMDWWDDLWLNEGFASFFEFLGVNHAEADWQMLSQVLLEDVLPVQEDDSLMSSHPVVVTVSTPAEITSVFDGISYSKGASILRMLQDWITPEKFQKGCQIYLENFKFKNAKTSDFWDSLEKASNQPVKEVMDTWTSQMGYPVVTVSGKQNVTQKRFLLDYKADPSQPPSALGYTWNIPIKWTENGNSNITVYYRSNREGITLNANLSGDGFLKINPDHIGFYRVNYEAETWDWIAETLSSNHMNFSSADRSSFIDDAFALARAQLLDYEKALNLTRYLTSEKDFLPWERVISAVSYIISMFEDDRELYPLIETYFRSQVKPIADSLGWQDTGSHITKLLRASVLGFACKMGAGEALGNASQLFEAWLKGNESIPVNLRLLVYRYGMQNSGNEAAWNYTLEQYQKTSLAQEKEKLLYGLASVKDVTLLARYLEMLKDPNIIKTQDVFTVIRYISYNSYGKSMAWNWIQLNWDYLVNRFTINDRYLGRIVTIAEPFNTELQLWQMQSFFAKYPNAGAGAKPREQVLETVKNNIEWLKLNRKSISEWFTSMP

[6] = system: rats; settings: administered to the periphery by intravenous injection in rats; cited from earlier work
[7] = system: APA over APN; settings: cited from earlier work
[8] = target: T2, APA (recombinant human ENPEP) (Homo sapiens, UniProt Q07075); assay: In vitro APA activity assay: conversion of Ang 1-8 to Ang 2-8, LC-MS/MS; assay type: biochemical; settings: 0.1 μM Amastatin, 1 μg/ml APA
T2 construct: purchased R&D 2499-ZN
T2 sequence (Q07075 whole entry): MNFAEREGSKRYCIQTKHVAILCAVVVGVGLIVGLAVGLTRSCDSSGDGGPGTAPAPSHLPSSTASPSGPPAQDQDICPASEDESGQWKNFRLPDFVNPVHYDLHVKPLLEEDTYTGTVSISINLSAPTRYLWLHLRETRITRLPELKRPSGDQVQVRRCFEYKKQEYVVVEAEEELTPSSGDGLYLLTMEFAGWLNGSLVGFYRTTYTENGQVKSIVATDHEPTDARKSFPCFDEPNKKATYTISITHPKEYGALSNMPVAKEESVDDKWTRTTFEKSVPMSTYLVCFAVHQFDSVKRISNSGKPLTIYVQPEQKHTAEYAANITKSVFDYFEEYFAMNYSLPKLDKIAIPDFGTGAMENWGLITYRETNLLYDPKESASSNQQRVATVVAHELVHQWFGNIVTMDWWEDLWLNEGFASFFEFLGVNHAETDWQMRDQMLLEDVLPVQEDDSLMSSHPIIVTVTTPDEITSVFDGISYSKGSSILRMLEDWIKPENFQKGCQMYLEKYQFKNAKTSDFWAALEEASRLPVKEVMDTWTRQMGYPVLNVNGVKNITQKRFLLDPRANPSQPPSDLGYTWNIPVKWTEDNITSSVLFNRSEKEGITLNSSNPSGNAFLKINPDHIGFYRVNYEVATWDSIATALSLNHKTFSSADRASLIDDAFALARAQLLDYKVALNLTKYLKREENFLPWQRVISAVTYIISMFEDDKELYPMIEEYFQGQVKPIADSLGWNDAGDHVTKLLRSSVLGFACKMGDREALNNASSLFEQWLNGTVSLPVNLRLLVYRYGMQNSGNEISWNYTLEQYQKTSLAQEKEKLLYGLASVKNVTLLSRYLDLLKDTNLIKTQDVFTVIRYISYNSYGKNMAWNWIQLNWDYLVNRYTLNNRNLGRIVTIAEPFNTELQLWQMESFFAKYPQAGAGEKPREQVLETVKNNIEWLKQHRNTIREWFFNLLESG
Experimental: (§1) APA activity was determined by measuring Ang 2-8 formation using LC-MS/MS. The Ang 2-8 formation rate is given in pg Ang 2-8/ml per minute. […] Following the incubation period, samples were cooled on ice, stabilized by the addition of protease inhibitors and analyzed for Ang 1-8 levels by LC-MS/MS.

[9] = system: human APA in plasma; assay: Ex vivo APA activity and Ang 1-8 levels in human heparin plasma plus recombinant human renin; assay type: biochemical
Experimental: as §1

[10] = target: APN (EC 3.4.11.2) (Homo sapiens, UniProt P15144); settings: APN vs APA; cited from earlier work
Sequence of APN (EC 3.4.11.2) (P15144 whole entry, species assumed): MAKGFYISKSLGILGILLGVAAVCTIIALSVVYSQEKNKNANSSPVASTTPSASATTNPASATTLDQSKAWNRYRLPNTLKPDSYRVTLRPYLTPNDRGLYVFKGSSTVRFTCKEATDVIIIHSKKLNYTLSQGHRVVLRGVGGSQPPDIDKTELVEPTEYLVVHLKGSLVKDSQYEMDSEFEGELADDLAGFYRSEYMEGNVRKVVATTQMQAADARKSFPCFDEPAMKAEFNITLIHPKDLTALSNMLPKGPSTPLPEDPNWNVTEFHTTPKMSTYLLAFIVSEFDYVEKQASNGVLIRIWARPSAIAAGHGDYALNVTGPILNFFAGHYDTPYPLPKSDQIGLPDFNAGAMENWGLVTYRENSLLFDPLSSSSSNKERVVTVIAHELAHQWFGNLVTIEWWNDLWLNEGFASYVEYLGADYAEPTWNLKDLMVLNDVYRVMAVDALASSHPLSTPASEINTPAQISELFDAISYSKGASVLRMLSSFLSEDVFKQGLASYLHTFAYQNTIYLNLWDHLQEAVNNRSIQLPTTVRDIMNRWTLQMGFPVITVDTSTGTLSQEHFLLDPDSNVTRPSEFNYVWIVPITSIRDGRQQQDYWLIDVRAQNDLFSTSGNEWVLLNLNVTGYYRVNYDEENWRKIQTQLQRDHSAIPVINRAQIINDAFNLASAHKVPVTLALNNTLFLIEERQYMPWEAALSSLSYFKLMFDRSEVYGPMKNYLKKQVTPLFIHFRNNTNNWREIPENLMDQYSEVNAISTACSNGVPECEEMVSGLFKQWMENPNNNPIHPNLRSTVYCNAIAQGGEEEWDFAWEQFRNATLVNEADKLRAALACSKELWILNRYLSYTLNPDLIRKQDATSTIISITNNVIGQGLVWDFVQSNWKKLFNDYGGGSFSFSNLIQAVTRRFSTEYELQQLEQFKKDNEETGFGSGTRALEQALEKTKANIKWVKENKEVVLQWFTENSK

SMILES: NCCCC[C@H](N[C@@H](CCc1ccccc1)C(=O)O)C(=O)N1CCC[C@H]1C(=O)O [Lisinopril]
- decrease in systolic blood pressure compared to vehicle treated animals ([1]; 40 mg/kg of each drug daily for 7 days, measured 4 h after dosing, 5 animals per group): 18.6+/−3.9 mmHg
- Ang 1-7 level [2]: 153 pg/mL
- Ang 1-8 level [2]: 33 pg/mL
- increase of Ang 1-7 following ACE inhibitor treatment alone ([3]; 4 h after i.p. injection): not observed
- equilibrium Ang 1-8 level ([4]; after saline 42.7 pg/ml): 21.5 pg/mL
- equilibrium Ang 1-7 level ([4]; after saline below 3.4 pg/ml): 12.1 pg/mL

SMILES: C[C@H](CS)C(=O)N1CCC[C@H]1C(=O)O [Captopril]
- Ang 1-7 level [2]: 100 pg/mL
- Ang 1-8 level [2]: 29 pg/mL
- increase of Ang 1-7 following ACE inhibitor treatment alone ([3]; 4 h after i.p. injection): not observed

SMILES: N[C@@H](CCS(=O)(=O)O)CSSC[C@@H](N)CCS(=O)(=O)O [RB150]
- effect on blood pressure [5]: effective in lowering blood pressure

SMILES: N[C@H](CS)CCS(=O)(=O)O [EC-33]
- effect on blood pressure [6]: no effect on blood pressure
- selectivity for APA over APN [7]: at least 100 fold

SMILES: CC(C)C[C@@H](N)[C@H](O)C(=O)N[C@H](C(=O)N[C@H](C(=O)N[C@@H](CC(=O)O)C(=O)O)C(C)C)C(C)C [Amastatin]
- increase in mean systolic blood pressure compared to vehicle treated animals ([1]; 40 mg/kg daily for 7 days, not significant (p=0.60)): 5.8+/−7.0 mmHg
- Ang 1-7 level [2]: 15 pg/mL
- Ang 1-8 level [2]: 1016 pg/mL
- effect on APA activity in vitro [8]: did not affect APA activity in vitro
- Ang 2-8 formation rate ([8]; 100 ng/ml Ang 1-8, 37° C. 10 min, 971 without Amastatin): 1077 pg Ang 2-8/ml per minute
- effect on the activity of human APA in plasma ([9]; 0.1 μM Amastatin, 1 μg/ml APA): did not affect the activity of human APA in plasma
- Ang 1-8 level in human heparin plasma ([9]; 0.1 μM Amastatin, no added APA, 100 pg/ml renin, 60 min 37° C., untreated control 412 pg/ml): 752 pg/mL
- reduction of Ang 1-8 levels by 1 μg/ml APA in the presence of 0.1 μM Amastatin ([9]; human heparin plasma, 266 pg/ml without Amastatin): 323 pg/mL
- change in circulating Ang 1-8 ([3]; 40 mg/kg i.p., 4 h following drug administration): decrease
- plasma Ang 1-7 level ([3]; 4 h after i.p. injection, 40 mg/kg each, baseline below LLOQ): < 4 pg/mL
- more potent in inhibiting APN compared to APA [10]: 40 fold
